Laboratory results as given in US20250179088A9 (ZYMEWORKS BC INC., priority 2020, published 2025).

Experiments:
PBMCs = assay: PBMC assay, IL-6 release (HTRF); format: cell-based; details: PBMCs from healthy donors, overnight, IL-6 induction by HTRF, average of quadruplicate
Experimental: Whole peripheral blood was obtained from healthy donors. PBMCs were isolated from peripheral blood by density gradient centrifugation. […] The plasma layer containing PBMCs was poured into a new tube and washed twice. Isolated PBMCs were either used fresh or thawed from previously frozen. 1×10^5 PBMCs were cultured with titrating concentrations of compounds of Formula I overnight followed by assaying for cytokines by homogeneous time resolved fluorescence (HTRF).

TLR7 = molecular target: T1, TLR7 (Homo sapiens, UniProt Q9NYK1); assay: Reporter gene assay, HEK-Blue TLR7 reporter cells (SEAP)
T1 sequence (Q9NYK1 27-1049): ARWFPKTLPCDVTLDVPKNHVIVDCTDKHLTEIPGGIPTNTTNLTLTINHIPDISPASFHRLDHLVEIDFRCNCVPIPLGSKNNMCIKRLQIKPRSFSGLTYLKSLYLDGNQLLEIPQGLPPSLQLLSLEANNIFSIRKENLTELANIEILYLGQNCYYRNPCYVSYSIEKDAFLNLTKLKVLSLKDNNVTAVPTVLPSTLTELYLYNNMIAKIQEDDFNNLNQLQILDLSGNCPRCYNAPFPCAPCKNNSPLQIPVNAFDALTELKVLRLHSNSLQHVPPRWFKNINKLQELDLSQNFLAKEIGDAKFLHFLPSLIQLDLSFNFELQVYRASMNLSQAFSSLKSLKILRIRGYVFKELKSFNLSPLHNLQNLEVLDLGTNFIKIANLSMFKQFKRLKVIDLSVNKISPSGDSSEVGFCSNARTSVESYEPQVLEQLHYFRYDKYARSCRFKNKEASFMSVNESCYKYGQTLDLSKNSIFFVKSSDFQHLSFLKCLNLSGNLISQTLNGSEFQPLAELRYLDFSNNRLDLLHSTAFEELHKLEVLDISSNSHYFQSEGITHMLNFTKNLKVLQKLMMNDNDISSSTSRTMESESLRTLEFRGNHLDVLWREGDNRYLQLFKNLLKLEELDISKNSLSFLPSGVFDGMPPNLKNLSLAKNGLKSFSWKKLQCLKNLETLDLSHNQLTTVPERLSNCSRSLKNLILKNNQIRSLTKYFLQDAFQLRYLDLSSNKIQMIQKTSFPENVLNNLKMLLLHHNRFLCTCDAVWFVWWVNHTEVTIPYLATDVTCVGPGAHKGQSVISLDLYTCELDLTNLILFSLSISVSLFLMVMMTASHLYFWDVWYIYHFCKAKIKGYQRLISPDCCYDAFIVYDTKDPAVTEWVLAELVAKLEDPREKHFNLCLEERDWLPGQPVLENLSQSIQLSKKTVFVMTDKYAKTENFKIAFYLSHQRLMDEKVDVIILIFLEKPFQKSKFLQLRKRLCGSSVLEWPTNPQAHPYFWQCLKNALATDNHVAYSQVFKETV
Experimental: (§1) 3×10^4 HEK-Blue™ TLR7 or 3×10^4 TLR8 reporter cells (InvivoGen, San Diego, CA) were treated with titrated (4-fold) amounts of test compound. […] Cells were incubated overnight at 37° C. and 5% CO2, then absorbance (620 and 655 nm) was read on a Synergy™ H1 microplate reader.

TLR8 = molecular target: T2, TLR8 (Homo sapiens, UniProt Q9NR97); assay: Reporter gene assay, HEK-Blue TLR8 reporter cells (SEAP)
T2 sequence (Q9NR97 27-1041): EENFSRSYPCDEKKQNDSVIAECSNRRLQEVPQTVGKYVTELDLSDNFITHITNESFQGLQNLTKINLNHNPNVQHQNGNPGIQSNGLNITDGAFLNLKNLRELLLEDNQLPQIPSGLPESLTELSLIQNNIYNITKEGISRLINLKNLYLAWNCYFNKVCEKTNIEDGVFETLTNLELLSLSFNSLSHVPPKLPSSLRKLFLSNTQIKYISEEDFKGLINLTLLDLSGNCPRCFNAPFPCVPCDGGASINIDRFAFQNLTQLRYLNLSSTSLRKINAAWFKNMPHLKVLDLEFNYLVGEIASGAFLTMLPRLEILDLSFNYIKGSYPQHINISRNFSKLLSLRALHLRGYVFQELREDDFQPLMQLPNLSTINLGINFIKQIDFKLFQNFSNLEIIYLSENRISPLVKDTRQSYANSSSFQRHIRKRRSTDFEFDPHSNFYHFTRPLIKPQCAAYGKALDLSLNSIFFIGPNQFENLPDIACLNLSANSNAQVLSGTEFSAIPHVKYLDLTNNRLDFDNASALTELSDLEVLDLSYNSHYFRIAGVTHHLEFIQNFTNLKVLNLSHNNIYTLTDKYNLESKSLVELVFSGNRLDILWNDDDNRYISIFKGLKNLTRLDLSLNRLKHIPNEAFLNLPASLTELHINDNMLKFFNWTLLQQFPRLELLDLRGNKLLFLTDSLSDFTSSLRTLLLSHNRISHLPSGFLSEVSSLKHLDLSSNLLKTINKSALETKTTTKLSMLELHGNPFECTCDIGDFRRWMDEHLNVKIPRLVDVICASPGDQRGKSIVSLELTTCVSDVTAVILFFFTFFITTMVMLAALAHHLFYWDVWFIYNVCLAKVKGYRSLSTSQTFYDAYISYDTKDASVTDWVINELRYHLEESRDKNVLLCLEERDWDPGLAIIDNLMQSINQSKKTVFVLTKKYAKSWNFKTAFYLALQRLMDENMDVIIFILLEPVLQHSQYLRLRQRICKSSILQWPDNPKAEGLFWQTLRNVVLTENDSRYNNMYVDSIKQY
Experimental: as §1

SMILES	EC50 (PBMCs) [nM]	EC50 (TLR7) [nM]	EC50 (TLR8) [nM]
CCCCc1nc2c(N)nc3ccsc3c2n1Cc1ccc(CNCCNC(=O)OC(C)(C)C)cc1 [Compound 160, tert-butyl (2-((4-((4-amino-2-butyl-1H-imidazo[4,5-d]thieno[3,2-b]pyridin-1-yl)methyl)benzyl)amino)ethyl)carbamate]	32	8.7	> 1000
CCCCc1nc2c(N)nc3ccsc3c2n1Cc1ccccc1CN1CCC(c2ccncc2)CC1 [Compound 219, 2-butyl-1-(2-((4-(pyridin-4-yl)piperidin-1-yl)methyl)benzyl)-1H-imidazo[4,5-d]thieno[3,2-b]pyridin-4-amine]	> 1000	> 1000	> 1000
CCCCc1nc2c(N)nc3ccsc3c2n1CCCCCN1CCN(CCN2CCOCC2)CC1 [Compound 176, 2-butyl-1-(5-(4-(2-morpholinoethyl)piperazin-1-yl)pentyl)-1H-imidazo[4,5-d]thieno[3,2-b]pyridin-4-amine]	58	33	> 1000
CCCCc1nc2c(N)nc3ccsc3c2n1Cc1cccc(CNCC(C)(C)N2CCOCC2)c1 [Compound 202, 2-butyl-1-(3-(((2-methyl-2-morpholinopropyl)amino)methyl)benzyl)-1H-imidazo[4,5-d]thieno[3,2-b]pyridin-4-amine]	750	330	950
CCCCc1nc2c(N)nc3ccsc3c2n1CCCCCN1CCNCC1 [Compound 182]	160	24	> 1000
CCCCc1nc2c(N)nc3ccsc3c2n1Cc1ccc(CN(CCN(CCCC)CCCC)CCN(CCCC)CCCC)cc1 [Compound 152, N^1-(4-((4-amino-2-butyl-1H-imidazo[4,5-d]thieno[3,2-b]pyridin-1-yl)methyl)benzyl)-N^2,N^2-dibutyl-N^1-(2-(dibutylamino)ethyl)ethane-1,2-diamine]	59	67	> 1000
CCCCc1nc2c(N)nc3ccsc3c2n1CCCCCN1CCC(c2ccncc2)CC1 [Compound 174, 2-butyl-1-(5-(4-(pyridin-4-yl)piperidin-1-yl)pentyl)-1H-imidazo[4,5-d]thieno[3,2-b]pyridin-4-amine]	78	21	> 1000
CCCCc1nc2c(N)nc3ccsc3c2n1CCCCCN=[N+]=[N-] [Compound 173, 1-(5-azidopentyl)-2-butyl-1H-imidazo[4,5-d]thieno[3,2-b]pyridin-4-amine]	> 1000	> 1000	> 1000
CCNCc1nc2c(N)nc3ccsc3c2n1Cc1ccc(CN2CCNCC2)cc1 [Compound 268, 2-((ethylamino)methyl)-1-(4-(piperazin-1-ylmethyl)benzyl)-1H-imidazo[4,5-d]thieno [3,2-b]pyridin-4-amine]	> 1000	> 1000	> 1000
CCCCc1nc2c(N)nc3ccsc3c2n1Cc1nc(CNCc2ccc(CO)cc2)cs1 [Compound 237, (4-((((2-((4-amino-2-butyl-1H-imidazo[4,5-d]thieno[3,2-b]pyridin-1-yl)methyl)thiazol-4-yl)methyl)amino)methyl)phenyl)methanol]	500	190	> 1000
CCCCc1nc2c(N)nc3ccsc3c2n1Cc1nc(CO)cs1 [Compound 228, (2-((4-amino-2-butyl-1H-imidazo[4,5-d]thieno[3,2-b]pyridin-1-yl)methyl)thiazol-4-yl)methanol]	> 1000	220	> 1000
CCCCc1nc2c(N)nc3ccsc3c2n1Cc1cccc(CNCCCCCO)c1 [Compound 203, 5-((3-((4-amino-2-butyl-1H-imidazo[4,5-d]thieno[3,2-b]pyridin-1-yl)methyl)benzyl)amino)pentan-1-ol]	160	290	120
CCCCc1nc2c(N)nc3ccsc3c2n1Cc1ccccc1CN [Compound 216, 1-(2-(aminomethyl)benzyl)-2-butyl-1H-imidazo[4,5-d]thieno[3,2-b]pyridin-4-amine]	> 1000	> 1000	> 1000
CCCCc1nc2c(N)nc3ccsc3c2n1Cc1ccc(CN2CCC(CNC(=O)OC(C)(C)C)CC2)cc1 [Compound 263, tert-butyl ((1-(4-((4-amino-2-butyl-1H-imidazo[4,5-d]thieno[3,2-b]pyridin-1-yl)methyl)benzyl)piperidin-4-yl)methyl)carbamate]	853	53	> 1000
CCCCc1nc2c(N)nc3ccsc3c2n1Cc1cccc(CN2CCNCC2)c1 [Compound 214, 2-butyl-1-(3-(piperazin-1-ylmethyl)benzyl)-1H-imidazo[4,5-d]thieno[3,2-b]pyridin-4-amine]	750	63	> 1000
CCCCc1nc2c(N)nc3ccsc3c2n1Cc1nc(CN2CCNCC2)cs1 [Compound 242, 2-butyl-1-((4-(piperazin-1-ylmethyl)thiazol-2-yl)methyl)-1H-imidazo[4,5-d]thieno[3,2-b]pyridin-4-amine]	> 1000	150	> 1000
CCCCc1nc2c(N)nc3ccsc3c2n1Cc1cccc(CN(CC)CC)c1 [Compound 199, 2-butyl-1-(3-((diethylamino)methyl)benzyl)-1H-imidazo[4,5-d]thieno[3,2-b]pyridin-4-amine]	330	130	430
CCCCc1nc2c(N)nc3ccsc3c2n1Cc1cccc(CNCc2cc[nH]c2)c1 [Compound 197, 1-(3-((((1H-pyrrol-3-yl)methyl)amino)methyl)benzyl)-2-butyl-1H-imidazo[4,5-d]thieno [3,2-b]pyridin-4-amine]	290	63	490
CCCCc1nc2c(N)nc3ccsc3c2n1Cc1ccccc1CN1CCN(C(=O)OC(C)(C)C)CC1 [Compound 217, tert-butyl 4-(2-((4-amino-2-butyl-1H-imidazo[4,5-d]thieno[3,2-b]pyridin-1-yl)methyl)benzyl)piperazine-1-carboxylate]	> 1000	> 1000	> 1000
CCCCc1nc2c(N)nc3ccsc3c2n1Cc1ccc(CNCc2ccc(CNC(=O)OC(C)(C)C)cc2)cc1 [Compound 155, tert-butyl (4-(((4-((4-amino-2-butyl-1H-imidazo[4,5-d]thieno[3,2-b]pyridin-1-yl)methyl)benzyl)amino)methyl)benzyl)carbamate]	110	444	> 1000
